Assay results reported in the supplement of paper PMC10307832.

What was measured:
Assay in all cases: relative viability (nuclei count vs DMSO), 5 days (fraction); higher = more cells survive
[1] = compound: Cc1cc(Nc2cc(N3CCN(C)CC3)nc(Sc3ccc(NC(=O)C4CC4)cc3)n2)n[nH]1 [Tozasertib] + CC(C)C[C@H](NC(=O)[C@H](Cc1ccccc1)NC(=O)c1cnccn1)B(O)O [Bortezomib] (partner 0.002 µM)
Outline: (§1)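 The day after seeding in 1536-well plates, lung cancer cell lines were treated by pin tool with a single drug, or with a fixed anchor-drug dose together with five library-drug doses (not always all listed) in √10 steps. After 5 days, a combined fix-and-stain solution (final 0.05% Triton X-100, 1% formaldehyde, 1 ug/ml Hoechst) was added. Nuclei counted on 4× images gave relative viability as treated counts over vehicle counts, reported as the median of duplicate plates.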

[2] = compound: Cc1cc(Nc2cc(N3CCN(C)CC3)nc(Sc3ccc(NC(=O)C4CC4)cc3)n2)n[nH]1 [Tozasertib] + CC(=O)Nc1cccc(-n2c(=O)n(C3CC3)c(=O)c3c(Nc4ccc(I)cc4F)n(C)c(=O)c(C)c32)c1 [Trametinib] (partner 0.02 µM)
Outline: as §1

[3] = compound: Cc1cc(Nc2cc(N3CCN(C)CC3)nc(Sc3ccc(NC(=O)C4CC4)cc3)n2)n[nH]1 [Tozasertib] + Cc1nc(Nc2ncc(C(=O)Nc3c(C)cccc3Cl)s2)cc(N2CCN(CCO)CC2)n1 [Dasatinib] (partner 0.075 µM)
Outline: as §1

[4] = compound: Cc1cc(Nc2cc(N3CCN(C)CC3)nc(Sc3ccc(NC(=O)C4CC4)cc3)n2)n[nH]1 [Tozasertib] + NC(=O)Nc1cc(-c2cccc(F)c2)sc1C(=O)N[C@H]1CCCNC1 [AZD7762] (partner 0.2 µM)
Outline: as §1

[5] = compound: Cc1cc(Nc2cc(N3CCN(C)CC3)nc(Sc3ccc(NC(=O)C4CC4)cc3)n2)n[nH]1 [Tozasertib] + O=C(c1cc(Cc2n[nH]c(=O)c3ccccc23)ccc1F)N1CCN(C(=O)C2CC2)CC1 [Olaparib] (partner 8 µM)
Outline: as §1

| Cell Line | relative viability ([1]; first compound 0.004 µM) | relative viability ([1]; first compound 0.01265 µM) | relative viability ([1]; first compound 0.04 µM) | relative viability ([2]; first compound 0.004 µM) | relative viability ([2]; first compound 0.01265 µM) | relative viability ([2]; first compound 0.04 µM) | relative viability ([3]; first compound 0.004 µM) | relative viability ([3]; first compound 0.01265 µM) | relative viability ([3]; first compound 0.04 µM) | relative viability ([3]; first compound 0.1265 µM) | relative viability ([4]; first compound 0.004 µM) | relative viability ([4]; first compound 0.01265 µM) | relative viability ([4]; first compound 0.04 µM) | relative viability ([4]; first compound 0.1265 µM) | relative viability ([5]; first compound 0.004 µM) | relative viability ([5]; first compound 0.01265 µM) | relative viability ([5]; first compound 0.04 µM) | relative viability ([5]; first compound 0.1265 µM) | relative viability ([1]; first compound 0.1265 µM) | relative viability ([2]; first compound 0.1265 µM) |
| --- | --- | --- | --- | --- | --- | --- | --- | --- | --- | --- | --- | --- | --- | --- | --- | --- | --- | --- | --- | --- |
| EMC-BAC-2 | 1.09 | 1.05 | 0.96 | 0.873 | 0.826 | 0.928 | 0.314 | 0.321 | 0.342 | 0.259 | 1.15 | 1.12 | 0.93 | 0.47 | 0.511 | 0.437 | 0.414 | 0.366 | – | – |
| HCC-827 | 1.03 | 1.04 | 1.06 | 0.493 | 0.481 | 0.663 | 0.299 | 0.282 | 0.352 | 0.345 | 0.16 | 0.204 | 0.23 | 0.2 | 0.684 | 0.577 | 0.723 | 0.624 | 0.839 | 0.512 |
| NCI-H1437 | 0.757 | 0.509 | 0.55 | 0.562 | 0.422 | 0.54 | 0.453 | 0.254 | 0.372 | 0.434 | 1.14 | 1.16 | 1.01 | 1.14 | 0.66 | 0.58 | 0.595 | 0.541 | 0.31 | 0.294 |
| NCI-H647 | 1.17 | – | 1.16 | 0.459 | 0.374 | 0.524 | 0.204 | 0.185 | 0.181 | 0.0838 | 0.567 | 0.418 | 0.43 | 0.0736 | 0.744 | 0.445 | 0.501 | 0.369 | 0.447 | 0.32 |
| LC-2-ad | 0.949 | 0.978 | 1.04 | 0.942 | 0.816 | 0.934 | 0.624 | 0.565 | 0.482 | 0.236 | 0.868 | 0.763 | 0.915 | 0.731 | 0.732 | 0.677 | 0.602 | 0.608 | 0.427 | 0.743 |
| CAL-12T | 1.2 | 0.785 | 0.962 | 0.439 | 0.27 | 0.445 | 0.434 | 0.332 | 0.404 | 0.151 | 0.563 | 0.553 | 0.545 | 0.494 | – | 0.741 | 0.769 | 0.55 | 0.362 | 0.219 |
| NCI-H1792 | 0.771 | 0.88 | 1.1 | 0.481 | 0.412 | 0.754 | 0.7 | 0.594 | 0.888 | 0.694 | 0.902 | 0.588 | 0.904 | 0.69 | 0.456 | 0.435 | 0.707 | 0.314 | 0.96 | 0.35 |
| NCI-H441 | 0.424 | 0.298 | 0.379 | 0.575 | 0.393 | 0.428 | 0.655 | 0.643 | – | 0.474 | 1.61 | 0.989 | 1.17 | 1.08 | 0.625 | 0.425 | 0.49 | 0.459 | 0.213 | 0.318 |
